# According to US11912668B2, “GCN2 and perk kinase inhibitors and methods of use thereof” (Deciphera Pharmaceuticals, LLC, priority 2020, dated 2024):
# Assays:
# [1] = system: ATF4 in HCT116 colorectal cancer cells; test: HCT116 amino acid starved (-AA) ATF4 assay (Western blot); type: cell-based; settings: Homo sapiens, HCT-116, 4 h
# Protocol: (§1) HCT116 colorectal cancer cells (catalog #CCL-247) were obtained from the American Type Culture Collect (ATTC, Manassas, VA). Briefly, cells were grown in RPMI 1640 supplemented with 10% heat inactivated fetal bovine serum (Invitrogen, Carlsbad, CA) and 1% Penicillin/Streptomycin/L-Glutamine at 37° C., 5% CO2, and 95% humidity. Cells were expanded until reaching 70-95% confluency at which point they were subcultured or harvested for assay use. Cells were seeded in 12-well culture plate at five hundred thousand cells per well in 1 mL complete growth medium and incubated overnight at 37° C., 5% CO2, and 95% humidity. The next day each well was replaced with 1 mL Earle's Balanced Salt Solution (EBSS, Invitrogen, Carlsbad, CA) supplemented with 10% Dialyzed Fetal Bovine Serum, 5.5 mM Glucose, 1% Penicillin/Streptomycin and 1% Vitamin solution (thermo #11120052). A serial dilution of test compound was dispensed into well. Plates were incubated for 4 h at 37° C., 5% CO2, and 95% humidity. At the end of the incubation, cells were washed with PBS supplemented with 1× Halt protease inhibitor, 1× Halt phosphatase inhibitor, 1× Sigma phosphatase inhibitor cocktail 2 and 1×EDTA and then lysed with M-PER Mammalian Protein Extraction Reagent supplemented with 3× of the inhibitor mix as described above. Cell lysates were sonicated with water bath sonicator (Qsonica, Newtown, CT) and supernatants were boiled with SDS buffer and reducing agent. Western blot was performed on each lysate to quantify phospho-GCN2 (Thr899), total GCN2, ATF4 and beta-Actin. Membranes were imaged with LI-COR Odyssey CLx Imaging System (LI-COR, Lincoln, NE). Data were analyzed using GraphPad Prism software (GraphPad, San Diego, CA) to calculate IC50 values.
# [2] = system: ATF4 in CCRF-CEM leukemia cells (PERK); test: CCRF-CEM TG ATF4 ELISA, phenotypic assay for cellular inhibition of PERK preactivated by thapsigargin; type: cell-based; settings: Homo sapiens; Thapsigargin (1 μM) stimulated CCRF-CEM cells
# Protocol: CCRF-CEM leukemia cells (catalog #CCL-116) were obtained from the American Type Culture Collection (ATTC, Manassas, VA). Briefly, cells were grown in RPMI-1640 medium supplemented with 10% heat-inactivated fetal bovine serum (Invitrogen, Carlsbad, CA) and 1% Penicillin/Streptomycin/L-Glutamine at 37° C., 5% CO2, and 95% humidity. Cells were expanded until reaching one million cells per mL at which time they were subcultured or harvested for assay use. One million five hundred thousand cells per well in 1 mL complete growth medium were dispensed into 12-well plates and incubated overnight. A serial dilution of test compound was added and cells were incubated at 37° C., 5% CO2, and 95% for three hours, then 1 μM thapsigargin was added and cells were incubated for an additional hour at 37° C., 5% CO2, and 95%. Cells were lysed then ATF4 levels were measured using an ELISA assay (Proteintech, Rosemont, IL). Absorbance was measured at 450 nm and 544 nM using a Synergy2 or equivalent reader (Biotek, Winooski VT). Data was analyzed using PRISM software (Graphpad, San Diego, CA) to calculate IC50 values.
# [3] = system: CCRF-CEM leukemia cells; test: CCRF-CEM ASNase cell proliferation assay, phenotypic assay for cellular inhibition of GCN2; type: cell-based; settings: Homo sapiens; ASNase treated CCRF-CEM cells, 1 mU/mL ASNase, 72 h
# Protocol: CCRF-CEM leukemia cells (catalog #CCL-116) were obtained from the American Type Culture Collect (ATTC, Manassas, VA). Cells were grown in RPMI-1640 medium supplemented with 10% heat-inactivated fetal bovine serum (Invitrogen, Carlsbad, CA) and 1% Penicillin/Streptomycin/L-Glutamine at 37° C., 5% CO2, and 95% humidity. Cells were expanded until reaching one million cells per mL at which time they are subcultured or harvested for assay use. Ten thousand cells per well in 200 μL RPMI-1640 supplemented with 10% heat-inactivated fetal bovine serum and 1% Penicillin/Streptomycin were dispensed into a 96-well black clear bottom plate. A serial dilution of test compound and 1 mU/mL ASNase was added in triplicate and plates were incubated for 72 h at 37° C., 5% CO2, and 95% humidity. At the end of the incubation, 40 μL of a […] solution of resazurin (Sigma, St. Louis, MO) in PBS was added to each well of the plate and plates were incubated for an additional 6 h at 37° C., 5% CO2, and 95% humidity. Plates were read on a Synergy2 or equivalent reader (Biotek, Winooski VT) using an excitation of 540 nm and an emission of 600 nm. Data was analyzed using GraphPad Prism software (GraphPad, San Diego, CA) to calculate IC50 values.
# [4] = target: GCN2 kinase (Homo sapiens (Human), UniProt Q9P2K8); test: Biochemical assay for GCN2 (TR-FRET kinase activity assay); settings: 1 mM ATP, 3-hour incubation
# GCN2 kinase, sequence (Q9P2K8 whole entry): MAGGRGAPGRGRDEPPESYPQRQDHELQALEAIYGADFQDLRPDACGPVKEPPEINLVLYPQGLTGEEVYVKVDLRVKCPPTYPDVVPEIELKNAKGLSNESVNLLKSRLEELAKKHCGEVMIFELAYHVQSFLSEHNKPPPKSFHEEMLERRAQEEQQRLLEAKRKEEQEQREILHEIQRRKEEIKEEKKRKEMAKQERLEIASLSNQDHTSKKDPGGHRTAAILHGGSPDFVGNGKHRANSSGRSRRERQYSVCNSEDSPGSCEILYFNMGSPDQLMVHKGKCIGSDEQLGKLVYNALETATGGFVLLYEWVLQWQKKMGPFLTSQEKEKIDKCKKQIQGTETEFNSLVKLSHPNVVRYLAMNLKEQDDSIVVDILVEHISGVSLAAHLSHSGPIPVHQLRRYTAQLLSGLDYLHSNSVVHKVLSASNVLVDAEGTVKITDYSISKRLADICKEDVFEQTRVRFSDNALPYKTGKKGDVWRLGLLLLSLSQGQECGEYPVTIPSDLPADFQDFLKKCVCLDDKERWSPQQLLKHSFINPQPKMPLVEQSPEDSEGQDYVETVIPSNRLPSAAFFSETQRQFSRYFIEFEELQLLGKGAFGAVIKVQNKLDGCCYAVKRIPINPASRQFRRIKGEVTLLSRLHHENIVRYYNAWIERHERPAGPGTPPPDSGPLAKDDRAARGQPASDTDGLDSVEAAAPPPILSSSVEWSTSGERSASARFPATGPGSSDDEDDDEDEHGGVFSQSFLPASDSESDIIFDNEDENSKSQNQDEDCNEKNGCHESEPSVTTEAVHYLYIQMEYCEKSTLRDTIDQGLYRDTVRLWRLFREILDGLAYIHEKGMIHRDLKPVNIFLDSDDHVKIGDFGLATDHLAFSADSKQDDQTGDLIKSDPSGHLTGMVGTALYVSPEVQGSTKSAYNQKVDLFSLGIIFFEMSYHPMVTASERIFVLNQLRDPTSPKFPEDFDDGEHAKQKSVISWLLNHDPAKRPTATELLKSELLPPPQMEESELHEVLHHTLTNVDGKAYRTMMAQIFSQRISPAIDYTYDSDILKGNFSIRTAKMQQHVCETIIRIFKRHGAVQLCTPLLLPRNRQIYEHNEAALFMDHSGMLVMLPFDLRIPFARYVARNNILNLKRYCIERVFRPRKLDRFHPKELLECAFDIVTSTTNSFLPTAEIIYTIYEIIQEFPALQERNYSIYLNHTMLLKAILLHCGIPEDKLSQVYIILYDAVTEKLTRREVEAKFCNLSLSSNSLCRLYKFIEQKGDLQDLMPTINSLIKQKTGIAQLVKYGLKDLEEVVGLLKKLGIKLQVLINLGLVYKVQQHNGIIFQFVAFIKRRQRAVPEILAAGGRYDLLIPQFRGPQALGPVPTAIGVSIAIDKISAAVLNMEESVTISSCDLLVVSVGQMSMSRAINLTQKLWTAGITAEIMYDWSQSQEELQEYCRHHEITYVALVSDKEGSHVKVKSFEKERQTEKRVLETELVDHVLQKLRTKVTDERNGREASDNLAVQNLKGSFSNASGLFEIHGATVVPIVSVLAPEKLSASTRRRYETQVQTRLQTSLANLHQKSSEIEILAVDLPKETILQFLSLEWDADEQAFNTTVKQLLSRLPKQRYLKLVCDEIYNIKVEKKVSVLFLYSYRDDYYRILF
# Summary of the method: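 TR-FRET assay with 2 nM GCN2, 130 nM GFP-eIF2α substrate, 0.2 mg/mL E. coli tRNA and 1 mM ATP; compounds (0.5% DMSO) reacted 3 h. Stopped with 20 mM EDTA plus 2 nM Tb-anti-peIF2α (pSer52), 60 min RT; 520/490 ratio converted to % inhibition, IC50 from four-parameter fit.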
# [5] = system: phospho-GCN2 (Thr899) in HCT116 colorectal cancer cells; test: HCT116 amino acid starved (-AA) phospho-GCN2 assay (Western blot); type: cell-based; settings: Homo sapiens, HCT-116, 4 h, read-out: HCT116-AA pGCN2 Western Blot
# Protocol: as §1
# [6] = target: PERK kinase (Homo sapiens (Human), UniProt Q9NZJ5); test: Biochemical assay for PERK (coupled pyruvate kinase/lactate dehydrogenase assay); settings: 1 mM ATP, rate from 2-3 h time frame
# PERK kinase, sequence (Q9NZJ5 other isoform, or with tags, fused parts or gaps): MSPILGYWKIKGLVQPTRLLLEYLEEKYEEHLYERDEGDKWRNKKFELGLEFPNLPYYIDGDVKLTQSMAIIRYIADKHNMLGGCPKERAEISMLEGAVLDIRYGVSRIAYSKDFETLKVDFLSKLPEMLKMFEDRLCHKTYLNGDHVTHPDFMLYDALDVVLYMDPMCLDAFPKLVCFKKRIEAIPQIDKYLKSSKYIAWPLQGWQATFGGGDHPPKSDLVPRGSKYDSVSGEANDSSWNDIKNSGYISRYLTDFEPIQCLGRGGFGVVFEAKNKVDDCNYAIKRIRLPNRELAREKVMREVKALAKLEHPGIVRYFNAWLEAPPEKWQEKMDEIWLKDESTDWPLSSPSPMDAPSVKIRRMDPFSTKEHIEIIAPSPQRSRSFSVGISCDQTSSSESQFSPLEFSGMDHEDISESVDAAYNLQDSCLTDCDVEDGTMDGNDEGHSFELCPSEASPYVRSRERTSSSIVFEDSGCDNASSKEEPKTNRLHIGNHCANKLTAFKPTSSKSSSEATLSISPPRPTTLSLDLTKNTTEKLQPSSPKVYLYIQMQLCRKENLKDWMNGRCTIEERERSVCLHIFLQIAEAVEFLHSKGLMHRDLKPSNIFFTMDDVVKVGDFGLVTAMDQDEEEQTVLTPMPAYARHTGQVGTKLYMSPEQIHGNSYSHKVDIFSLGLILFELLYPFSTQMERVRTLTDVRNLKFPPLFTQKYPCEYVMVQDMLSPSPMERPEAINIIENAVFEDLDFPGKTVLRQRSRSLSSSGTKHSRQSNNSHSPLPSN
# Summary of the method: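 Coupled pyruvate kinase/lactate dehydrogenase readout of ATP hydrolysis via NADH oxidation (A340), 10 nM PERK, 0.25 mg/mL myelin basic protein, 1 mM ATP, pH 7.5 Tris/MgCl2 buffer, 1% DMSO. Absorbance followed 6 h at 30° C; rate from the 2-3 h window, normalised to no-compound and known-inhibitor controls, IC50 fitted.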
SMILES,IC50 [1] [nM],IC50 [2] [nM],IC50 [3] [nM],IC50 [4] [nM],IC50 [5] [nM],IC50 [6] [nM]
CNc1ncc2cc(-c3cc(NS(=O)(=O)c4cc(Cl)cnc4OC)ccc3Cl)c(C)nc2n1 [Example 68],≤ 100,1000 to 10000,≤ 100,≤ 100,≤ 100,≤ 100
CNc1ncc2cc(-c3cccc(NS(=O)(=O)c4cc(Cl)cc(C(C)(C)O)c4Cl)c3F)c(NC)nc2n1 [Example 74],≤ 100,1000 to 10000,≤ 100,100 to 500,≤ 100,100 to 500
COc1ncc(Cl)cc1S(=O)(=O)Nc1cccc(-c2cc3cnc(N)cc3nc2C)c1F [Example 77],≤ 100,100 to 500,≤ 100,≤ 100,≤ 100,≤ 100
CNc1cc2nc(C)c(-c3cccc(NS(=O)(=O)c4cc(Cl)cnc4NC)c3F)cc2cn1 [Example 78],≤ 100,500 to 1000,≤ 100,≤ 100,≤ 100,≤ 100
COc1ncc(Cl)cc1S(=O)(=O)Nc1cccc(-c2cc3cnc(NC(C)=O)cc3nc2C)c1F [Example 84],≤ 100,100 to 500,≤ 100,≤ 100,≤ 100,≤ 100
COc1ncc(Cl)cc1S(=O)(=O)Nc1cccc(-c2cnc3cc(N)ncc3c2)c1F [Example 85],≤ 100,1000 to 10000,≤ 100,≤ 100,≤ 100,≤ 100
COc1ncc(Cl)cc1S(=O)(=O)Nc1cc(F)cc(-c2cc3cnc(Nc4cnn(C)c4)nc3nc2C)c1 [Example 87],≤ 100,1000 to 10000,≤ 100,≤ 100,≤ 100,≤ 100
COc1ncc(Cl)cc1S(=O)(=O)Nc1cccc(-c2cc3cnc(Nc4cnn(C)c4)nc3nc2C)c1F [Example 88],≤ 100,100 to 500,≤ 100,≤ 100,≤ 100,≤ 100
CNc1ncc2cc(-c3cccc(NS(=O)(=O)c4cc(Cl)cnc4OC)c3OC)c(C)nc2n1 [Example 89],100 to 500,1000 to 10000,100 to 500,100 to 500,≤ 100,≤ 100
CNc1ncc2cc(-c3cccc(NS(=O)(=O)c4cc(Cl)cnc4NC)c3F)c(C)nc2n1 [Example 90],≤ 100,1000 to 10000,≤ 100,≤ 100,≤ 100,≤ 100
COc1ncc(Cl)cc1S(=O)(=O)Nc1cc(F)cc(-c2cc3cnc(N)nc3nc2N)c1 [Example 92],≤ 100,1000 to 10000,≤ 100,≤ 100,≤ 100,≤ 100
COc1nc2nc(N)ncc2cc1-c1cc(F)cc(NS(=O)(=O)c2cc(Cl)cnc2OC)c1 [Example 93],100 to 500,1000 to 10000,100 to 500,≤ 100,≤ 100,100 to 500
CNc1ncc2cc(-c3cccc(NS(=O)(=O)c4cc(Cl)cnc4OC)c3C#N)c(C)nc2n1 [Example 95],100 to 500,1000 to 10000,100 to 500,≤ 100,≤ 100,100 to 500
CNc1nc2nc(N)ncc2cc1-c1cc(F)cc(NS(=O)(=O)c2cc(Cl)cnc2OC)c1 [Example 96],100 to 500,1000 to 10000,100 to 500,≤ 100,≤ 100,100 to 500
CNc1ncc2cc(-c3cccc(NS(=O)(=O)c4cc(Cl)cnc4OC)c3F)c(NCCO)nc2n1 [Example 97],100 to 500,1000 to 10000,≤ 100,≤ 100,≤ 100,100 to 500
CNc1ncc2cc(-c3cccc(NS(=O)(=O)c4cc(Cl)cnc4OC)c3F)c(NCCOC)nc2n1 [Example 100],≤ 100,1000 to 10000,≤ 100,≤ 100,≤ 100,100 to 500
CNc1ncc2cc(-c3cccc(NS(=O)(=O)c4cc(Cl)cc(C(=O)OC)c4Cl)c3F)c(NC)nc2n1 [Example 102],≤ 100,1000 to 10000,≤ 100,≤ 100,≤ 100,100 to 500
CNc1nc2nc(NC3CC3)ncc2cc1-c1cccc(NS(=O)(=O)c2cc(Cl)cnc2OC)c1F [Example 111],≤ 100,1000 to 10000,100 to 500,≤ 100,100 to 500,100 to 500
CNc1cc2nc(NC)c(-c3cccc(NS(=O)(=O)c4cc(Cl)cnc4OC)c3Cl)cc2cn1 [Example 113],100 to 500,500 to 1000,≤ 100,100 to 500,≤ 100,100 to 500
CNc1cc2nc(NC)c(-c3cccc(NS(=O)(=O)c4cc(Cl)cnc4OC)c3F)cc2cn1 [Example 114],100 to 500,1000 to 10000,≤ 100,≤ 100,≤ 100,≤ 100
CCNc1ncc2cc(-c3cccc(NS(=O)(=O)c4cc(Cl)cnc4OC)c3F)c(NC)nc2n1 [Example 115],≤ 100,1000 to 10000,≤ 100,≤ 100,≤ 100,≤ 100
CNc1nc2nc(NC(C)C)ncc2cc1-c1cccc(NS(=O)(=O)c2cc(Cl)cnc2OC)c1F [Example 117],100 to 500,1000 to 10000,100 to 500,≤ 100,100 to 500,100 to 500
COc1ncc(Cl)cc1S(=O)(=O)Nc1cccc(-c2cc3cnc(N)cc3nc2C)c1Cl [Example 121],≤ 100,100 to 500,≤ 100,≤ 100,≤ 100,≤ 100
CNc1cc2nc(C)c(-c3cccc(NS(=O)(=O)c4cc(Cl)cnc4OC)c3Cl)cc2cn1 [Example 127],≤ 100,500 to 1000,≤ 100,≤ 100,≤ 100,≤ 100
